In PubChem BioAssay AID1259407 (Chemical Carcinogenesis Research Information System (CCRIS), 2018):
Activity calls are given as the source filed them. The rule behind the calls is not given here.

Tested on: CCRIS mutagenicity, Ames/micronucleus/aberration tests
Assay: CCRIS mutagenicity studies

With O=S(Cl)Cl the mutagenic call (Test System: AMES SALMONELLA TYPHIMURIUM, Strain/Indicator: TA100, Metabolic Activation: HAMSTER, LIVER, S-9, AROCLOR 1254 (2.5-20%), Method: PREINCUBATION) was “active; positive”, the mutagenic call (Test System: AMES SALMONELLA TYPHIMURIUM, Strain/Indicator: TA102, Metabolic Activation: HAMSTER, LIVER, S-9, AROCLOR 1254, Method: PREINCUBATION) was “active; positive” and the mutagenic call (Test System: AMES SALMONELLA TYPHIMURIUM, Strain/Indicator: TA102, Metabolic Activation: RAT, LIVER, S-9, AROCLOR 1254, Method: PREINCUBATION) was “active; positive”. For the same compound, the mutagenic call (Test System: Mouse lymphoma, Strain/Indicator: L5178Y (tk+/tk-), Metabolic Activation: None, Method: Suspension/plate) was “active; equivocal (previous evaluation positive)” and the mutagenic call (Test System: Mouse lymphoma, Strain/Indicator: L5178Y (tk+/tk-), Metabolic Activation: Rat, Liver, S-9, Aroclor 1254, Method: Suspension/plate) was “inactive; inconclusive (previous evaluation negative)”.
